In brackets after ≈: the same amount, converted by molar mass.
Tests used:
[1] = system: Rattus norvegicus; assay: Anti-cataleptic activity in Sprague-Dawley rat assessed as inhibition of haloperidol-induced catalepsy at 30 mg/kg, po administered for 1 hr; format: functional
[2] = biological target: T1, Adenosine receptor A1 (Homo sapiens, UniProt P30542); assay: Displacement of [3H]DPCPX from human adenosine A1 receptor expressed in CHO cell membranes after 60 mins by microplate scintillation counting analysis
T1 sequence (P30542 whole entry): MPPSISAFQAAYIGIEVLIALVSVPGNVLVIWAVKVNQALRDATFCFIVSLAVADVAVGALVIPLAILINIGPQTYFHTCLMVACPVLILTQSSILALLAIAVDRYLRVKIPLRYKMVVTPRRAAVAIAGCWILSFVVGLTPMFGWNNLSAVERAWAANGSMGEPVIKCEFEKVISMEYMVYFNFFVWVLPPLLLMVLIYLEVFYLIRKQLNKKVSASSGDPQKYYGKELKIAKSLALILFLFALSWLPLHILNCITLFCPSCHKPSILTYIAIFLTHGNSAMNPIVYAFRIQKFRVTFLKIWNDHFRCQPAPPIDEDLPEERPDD

[3] = biological target: Adenosine receptor A2a (Rattus norvegicus, UniProt P30543); assay: Binding affinity to rat A2A adenosine receptor
[4] = biological target: Adenosine receptor A2a (Homo sapiens, UniProt P29274); assay: Displacement of [3H]SCH-58261 from human adenosine A2A receptor expressed in HEK cell membranes after 60 mins by microplate scintillation counting analysis; design: species or system HEK293
[5] = system: Rattus norvegicus; assay: Anti-cataleptic activity in Sprague-Dawley rat assessed as inhibition of haloperidol-induced catalepsy at 10 mg/kg, po administered for 1 hr; format: functional
[6] = AUC in haloperidol-induced Sprague-Dawley rat cataleptic model at 10 mg/kg, po administered for 1 hr; format: ADME, organism-based; details: in vivo
[7] = AUC in haloperidol-induced Sprague-Dawley rat cataleptic model at 30 mg/kg, po administered for 1 hr; format: ADME, organism-based; details: in vivo
[8] = biological target: T2, Cytochrome P450 3A4 (Homo sapiens, UniProt P08684); assay: Time dependent inhibition of CYP3A4 (unknown origin); format: ADME
[9] = system: Rattus norvegicus; assay: Anti-cataleptic activity in Sprague-Dawley rat assessed as inhibition of haloperidol-induced catalepsy at 1 mg/kg, po administered for 1 hr; format: functional
[10] = Solubility of compound at pH 7; format: physicochemical; details: buffer
[11] = Permeability of the compound; format: ADME; details: not told; read-out: permeability
[12] = Half life in haloperidol-induced Sprague-Dawley rat cataleptic model at 1 to 30 mg/kg, po administered for 1 to 4 hrs; format: ADME, organism-based; details: in vivo
[13] = Plasma concentration in haloperidol-induced Sprague-Dawley rat cataleptic model after 1 hr; format: ADME
[14] = biological target: T3, Adenosine receptor A2b (Homo sapiens, UniProt P29275); assay: Binding affinity to human adenosine A2B receptor
T3 sequence (P29275 whole entry): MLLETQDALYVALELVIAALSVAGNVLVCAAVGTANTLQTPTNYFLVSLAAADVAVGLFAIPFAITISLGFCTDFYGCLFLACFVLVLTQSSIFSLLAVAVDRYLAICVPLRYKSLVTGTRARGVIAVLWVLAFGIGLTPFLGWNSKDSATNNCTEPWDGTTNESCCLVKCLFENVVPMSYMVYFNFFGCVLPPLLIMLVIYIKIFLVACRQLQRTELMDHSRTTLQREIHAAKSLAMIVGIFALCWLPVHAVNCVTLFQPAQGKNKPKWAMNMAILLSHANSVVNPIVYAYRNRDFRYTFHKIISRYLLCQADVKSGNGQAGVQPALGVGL

[15] = Plasma protein binding in human; format: ADME, cell-free; details: read-out: PPB (converted)
[16] = Drug uptake in brain of haloperidol-induced Sprague-Dawley rat cataleptic model after 1 hr; format: ADME, tissue-based; details: read-out: Drug uptake
[17] = Clearance in human hepatocytes assessed per million cells; format: ADME, cell-based, Hepatocyte; details: read-out: CLH
[18] = Clearance in rat hepatocytes assessed per million cells; format: ADME, cell-based, Hepatocyte; details: read-out: CLH
[19] = biological target: T2, Cytochrome P450 3A4; assay: Time dependent inhibition of CYP3A4 (unknown origin) at 30 uM relative to control; format: ADME
[20] = Plasma protein binding in rat; format: ADME, cell-free; details: read-out: PPB (converted)
[21] = biological target: T4, Adenosine receptor A3 (Homo sapiens, UniProt P0DMS8); assay: Binding affinity to human adenosine A3 receptor
T4 sequence (P0DMS8 whole entry): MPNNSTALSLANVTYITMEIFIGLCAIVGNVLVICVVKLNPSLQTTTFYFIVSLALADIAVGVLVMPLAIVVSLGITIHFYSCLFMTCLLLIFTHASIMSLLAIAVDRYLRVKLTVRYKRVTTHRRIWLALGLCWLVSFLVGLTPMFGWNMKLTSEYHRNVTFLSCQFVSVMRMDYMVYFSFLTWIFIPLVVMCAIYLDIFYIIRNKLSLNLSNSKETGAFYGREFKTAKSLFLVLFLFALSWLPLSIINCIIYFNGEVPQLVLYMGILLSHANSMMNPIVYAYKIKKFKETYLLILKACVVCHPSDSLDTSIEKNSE

Chain of Adenosine receptor A2a (Rattus norvegicus, UniProt P30543) (P30543 whole entry): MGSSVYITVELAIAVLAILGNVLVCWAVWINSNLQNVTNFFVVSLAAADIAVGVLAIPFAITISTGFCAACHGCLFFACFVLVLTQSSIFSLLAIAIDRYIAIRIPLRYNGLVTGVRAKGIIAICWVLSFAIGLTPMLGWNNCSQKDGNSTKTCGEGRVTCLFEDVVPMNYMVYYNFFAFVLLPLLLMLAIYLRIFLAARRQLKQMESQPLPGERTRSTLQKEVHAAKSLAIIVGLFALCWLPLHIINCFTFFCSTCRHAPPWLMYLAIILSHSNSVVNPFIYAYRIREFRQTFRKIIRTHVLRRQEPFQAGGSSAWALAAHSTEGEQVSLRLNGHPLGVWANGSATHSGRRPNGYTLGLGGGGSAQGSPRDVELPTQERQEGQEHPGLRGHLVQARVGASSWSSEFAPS
Chain of Adenosine receptor A2a (Homo sapiens, UniProt P29274) (P29274 whole entry): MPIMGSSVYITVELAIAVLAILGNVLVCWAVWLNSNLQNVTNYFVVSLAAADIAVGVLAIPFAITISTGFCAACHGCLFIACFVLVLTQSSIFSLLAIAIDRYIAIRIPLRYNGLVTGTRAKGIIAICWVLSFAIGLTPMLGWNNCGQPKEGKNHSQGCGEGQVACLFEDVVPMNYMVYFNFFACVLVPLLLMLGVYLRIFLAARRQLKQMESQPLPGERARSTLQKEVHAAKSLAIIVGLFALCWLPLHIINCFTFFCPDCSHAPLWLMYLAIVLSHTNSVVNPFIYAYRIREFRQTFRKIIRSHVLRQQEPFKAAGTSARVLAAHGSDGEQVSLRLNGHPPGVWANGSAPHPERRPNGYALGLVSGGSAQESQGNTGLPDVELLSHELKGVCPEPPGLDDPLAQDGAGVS
T2 sequence (P08684 whole entry): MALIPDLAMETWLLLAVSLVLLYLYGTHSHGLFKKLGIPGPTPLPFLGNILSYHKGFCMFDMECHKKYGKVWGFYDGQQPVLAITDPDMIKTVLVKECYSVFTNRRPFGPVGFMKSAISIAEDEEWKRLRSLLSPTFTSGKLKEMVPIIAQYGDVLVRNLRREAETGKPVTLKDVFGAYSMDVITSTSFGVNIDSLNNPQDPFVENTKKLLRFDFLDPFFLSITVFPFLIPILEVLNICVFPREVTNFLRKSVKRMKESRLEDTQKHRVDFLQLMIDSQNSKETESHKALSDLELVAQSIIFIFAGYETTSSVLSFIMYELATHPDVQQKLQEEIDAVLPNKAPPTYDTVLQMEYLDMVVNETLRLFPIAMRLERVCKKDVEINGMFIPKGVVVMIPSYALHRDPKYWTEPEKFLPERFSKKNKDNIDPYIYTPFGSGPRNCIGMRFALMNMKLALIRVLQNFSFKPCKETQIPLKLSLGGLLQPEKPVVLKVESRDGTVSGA

| Ki [2] [nM] | Ki [4] [nM] | SMILES | further results |
| --- | --- | --- | --- |
| 1300 |  | Nc1nc(C(=O)NCc2cccc3cccnc23)c2cccc(C(F)(F)F)c2n1 | inhibition in vivo at 30 mg/kg [1]: 0%; Ki ([3]; read-out: Ki): 57 nM |
| 112 | 8.4 | Cc1cccc(CNC(=O)c2nc(N)nc3c(F)cccc23)c1 |  |
| 600 | 14 | Nc1nc(C(=O)NCCc2ccccn2)c2cccc(F)c2n1 |  |
| 69 | 15.2 | COc1ccnc2c(CNC(=O)c3nc(N)nc4c(F)cccc34)cccc12 | Ki ([3]; read-out: Ki): 1.3 nM |
| 135 | 21.5 | Nc1nc(C(=O)NCc2cccc3c2OCCN3)c2cccc(F)c2n1 |  |
| 110 | 2.7 | Nc1nc(C(=O)NCc2cccc3cc(C(=O)N4CCN(c5ccccn5)CC4)cnc23)c2cccc(F)c2n1 | Ki ([3]; read-out: Ki): 12.5 nM |
| 337 | 24 | N#Cc1cccc2c(C(=O)NCc3cccc4cccnc34)nc(N)nc12 |  |
| 748 | 245 | CCCCOc1ccnc2c(CNC(=O)c3nc(N)nc4c(F)cccc34)cccc12 | Ki [3]: Not Active |
| 524 | 126 | C[C@H](NC(=O)c1nc(N)nc2c(F)cccc12)c1cccc2cccnc12 |  |
| 31 | 0.3 | Nc1nc(C(=O)NCc2cccc3cccnc23)c2ccc(F)cc2n1 | inhibition in vivo at 10 mg/kg [5]: 39%; AUC at 1 h [6]: 2.3 µM·h; Ki ([3]; read-out: Ki): 4.8 nM |
| 57 |  | C[C@@H](NC(=O)c1nc(N)nc2c(F)cccc12)c1cccc2cccnc12 |  |
| 132 |  | CSc1cccc2c(C(=O)NCc3cccc4cccnc34)nc(N)nc12 | inhibition in vivo at 30 mg/kg [1]: 0%; AUC at 1 h [7]: 8.9 µM·h; Ki ([3]; read-out: Ki): 12 nM |
| 6000 | 1540 | Nc1nc(C(=O)NCc2cccc3c(C(=O)N4CCN(c5ccccc5)CC4)ccnc23)c2cccc(F)c2n1 |  |
| 10 |  | Nc1nc(C(=O)NCc2cccc3cccnc23)c2cccc(Br)c2n1 |  |
| 210 | 12 | CN(CCCc1ccccn1)C(=O)c1cnc2c(CNC(=O)c3nc(N)nc4c(F)cccc34)cccc2c1 |  |
| 160 | 4.4 | Nc1nc(C(=O)NCc2cccc3cc(C(=O)N4CCCc5ccccc54)cnc23)c2cccc(F)c2n1 |  |
| 103 | 20 | Nc1nc(C(=O)NCc2cccc3c2OCCO3)c2cccc(F)c2n1 |  |
| 4740 |  | CS(=O)(=O)c1cccc2c(C(=O)NCc3cccc4cccnc34)nc(N)nc12 | Ki ([3]; read-out: Ki): 302 nM |
| 33 | 3.1 | Nc1nc(C(=O)NCc2cccc3cccnc23)c2cccc(I)c2n1 | inhibition in vivo at 10 mg/kg [5]: 23%; AUC at 1 h [6]: 1.3 µM·h |
| 78 | 26.7 | Nc1nc(C(=O)NCc2cncc3ccccc23)c2cccc(F)c2n1 |  |
| 12 | 0.5 | Nc1nc(C(=O)NCc2cccc3cccnc23)c2cccc(F)c2n1 | inhibition in vivo at 10 mg/kg [5]: 74%; TDI [8]: Not Active; AUC at 1 h [6]: 2.4 µM·h; inhibition in vivo at 1 mg/kg [9]: 30%; Ki ([3]; read-out: Ki): 1.3 nM |
| 559 | 160 | Nc1nc(C(=O)NCCc2ccccc2)c2cccc(F)c2n1 |  |
| 40 | 3.6 | Nc1nc(C(=O)NCc2cccc3cccnc23)c2cc(F)c(F)cc2n1 |  |
| 50 | 6.6 | Nc1nc(C(=O)NCc2cccc3cccnc23)c2cc(Cl)cc(Cl)c2n1 |  |

| Ki [2] [nM] | Ki [4] [nM] | SMILES | further results |
| --- | --- | --- | --- |
| 281 | 25 | Nc1nc(C(=O)NCc2cccc3[nH]cnc23)c2cccc(F)c2n1 |  |
| 213 |  | Nc1nc(C(=O)NCc2cccc3cccnc23)c2cccc(Cl)c2n1 | inhibition in vivo at 30 mg/kg [1]: 35%; Ki ([3]; read-out: Ki): 2.9 nM |
| 346 | 4.4 | Nc1nc(C(=O)NCc2cccc3cccnc23)c2cc(F)ccc2n1 | inhibition in vivo at 10 mg/kg [5]: 55%; AUC at 1 h [6]: 0.8 µM·h; Ki ([3]; read-out: Ki): 8.7 nM |
| 213 | 7.6 | Nc1nc(C(=O)NCc2cccc3c2NCCC3)c2cccc(F)c2n1 |  |
| 78 | 15 | Nc1nc(C(=O)NCc2ccc3ccccc3n2)c2cccc(F)c2n1 |  |
| 120 | 4.8 | COCCOc1ccc(N2CCN(C(=O)c3cnc4c(CNC(=O)c5nc(N)nc6c(F)cccc56)cccc4c3)CC2)cc1 | Ki ([3]; read-out: Ki): 11.4 nM |
| 83 | 5.4 | Nc1nc(C(=O)NCc2ccccc2)c2cccc(F)c2n1 |  |
| 24 | 3.1 | CCn1cnc2c(CNC(=O)c3nc(N)nc4c(F)cccc34)cccc21 |  |
| 116 | 13.6 | Cc1ccccc1CNC(=O)c1nc(N)nc2c(F)cccc12 |  |
| 6040 | 1040 | Cn1nccc1-c1cccc2c(C(=O)NCc3cccc4cccnc34)nc(N)nc12 |  |
| 252 | 73.2 | CCOc1ccnc2c(CNC(=O)c3nc(N)nc4c(F)cccc34)cccc12 |  |
| 6300 | 160 | Nc1nc(C(=O)NCc2cccc3cccnc23)c2cccc(-c3cncnc3)c2n1 |  |
| 54 | 8.2 | Nc1nc(C(=O)NCc2cccc3cc[nH]c23)c2cccc(F)c2n1 |  |
| 5.4 | 1.8 | Nc1nc(C(=O)NCc2cccc3c2C(=O)NC3)c2cccc(F)c2n1 |  |
| 84 | 6.7 | Nc1nc(C(=O)NCc2nccc3ccccc23)c2cccc(F)c2n1 |  |
| 20 |  | Nc1nc(C(=O)NCc2cccc3cccnc23)c2cccc(OC(F)(F)F)c2n1 | inhibition in vivo at 30 mg/kg [1]: 0%; Ki ([3]; read-out: Ki): 2.9 nM |
| 17600 | 836 | Nc1cc(C(=O)NCc2cccc3cccnc23)c2ccccc2n1 | solubility [10]: 19 µM (≈ 6.24 µg/mL) |
| 10000 | 927 | Nc1nc(C(=O)NCc2ccnc3ccccc23)c2cccc(F)c2n1 |  |
| 160 | 6.9 | Nc1nc(C(=O)NCc2cccc3cc(C(=O)NCCCCCc4ccccc4)cnc23)c2cccc(F)c2n1 |  |
| 90 | 10.1 | Nc1nc(C(=O)NCc2cccc3ccccc23)c2cccc(F)c2n1 |  |
| 170 | 45 | Nc1nc(C(=O)NCC2CCCCC2)c2cccc(F)c2n1 |  |
| 6 |  | COc1cccc2c(C(=O)NCc3cccc4cccnc34)nc(N)nc12 | inhibition in vivo at 30 mg/kg [1]: 31%; AUC at 1 h [7]: 0.8 µM·h; Ki ([3]; read-out: Ki): 0.6 nM |
| 90 | 1.1 | Nc1nc(C(=O)NCc2cccc3cccnc23)c2ccccc2n1 | Papp [11]: 40 ×10⁻⁶ cm/s; inhibition in vivo at 10 mg/kg [5]: 35%; inhibition in vivo at 30 mg/kg [1]: 61%; half-life [12]: 30 min; concentration at 1 h [13]: 4.2 µM; Ki [14]: 1470 nM; fraction unbound [15]: 0.036; AUC at 1 h [6]: 1.6 µM·h; solubility [10]: 124 µM (≈ 40.8 µg/mL); concentration at 1 h [16]: 3.1 µM; hepatocyte CLint [17]: 34.8 µL/min/1e6 cells; hepatocyte CLint [18]: 12.8 µL/min/1e6 cells; Ki ([3]; read-out: Ki): 11 nM; fold change (FC) [19]: 3; fraction unbound [20]: 0.045; Ki [21]: 985 nM |
